Assay results from ChEMBL document CHEMBL5370630, “Design, Synthesis, and Biological Evaluation of SSE1806, a Microtubule Destabilizer That Overcomes Multidrug Resistance” (2023).
Blank lines part the entries; values can stand above or below the compound they belong to. Active and inactive are the calls of the source. No cut-off for these calls is given here.

Experiments:
CAL-51 [1] = assay: Induction of mitotic arrest in human CAL-51 cells assessed as upregulation of histone H3 phosphorylation at S10 residue at 25 uM incubated for 8 hrs by dot blot assay; assay type: functional, cell-based
HCT-116 [2] = assay: Antiproliferative activity against human HCT-116 cells incubated for 72 hrs by SRB proliferation assay; assay type: functional
CAL-51 [3] = assay: Antiproliferative activity against human CAL-51 cells incubated for 72 hrs by SRB proliferation assay; assay type: functional
HCT-116 [4] = assay: Induction of cell cycle arrest in human HCT-116 cells accumulation of cells at G2/M phase incubated for 12 hrs by PI staining based flow cytometry analysis; assay type: functional
A549 [5] = assay: Induction of mitotic arrest in human A549 cells assessed as increase in mitotic index by measuring histone H3 phosphorylation at S10 residue at 5 times GI50 incubated for 24 hrs by immunofluorescence analysis; assay type: functional, cell-based
HCT-116 [6] = assay: Induction of mitotic arrest in human HCT-116 cells assessed as upregulation of histone H3 phosphorylation at S10 residue at 1.25 to 5 times GI50 measured for 8 to 16 hrs by Western blot analysis; assay type: functional, cell-based; settings: time 8-16 hrs
Tubulin (Homo sapiens) [7] = molecular target: T1, Tubulin (Homo sapiens) (UniProt P68371+Q9H4B7+P0DPH7+P68366+Q13509+Q71U36+P04350+Q3ZCM7+P07437+P68363+Q9BQE3+Q6PEY2+Q13885+Q9BVA1+Q9BUF5); assay: Inhibition of microtubule re-polymerization in human A549 cells at 5 times GI50 preincubated for 30 min on ice followed by incubation at 37 degreeC for 10 mins by immunofluorescence analysis; assay type: cell-based; settings: time 40.0 min
BT-549 = assay: Antitumor activity against human BT-549 cells by MTS assay; assay type: functional
HCC1954 = assay: Antitumor activity against human HCC1954 cells by MTS assay; assay type: functional
MCF7 = assay: Antitumor activity against human MCF7 cells by MTS assay; assay type: functional
MOLM-13 = assay: Antitumor activity against human MOLM-13 cells by MTS assay; assay type: functional
MV4-11 = assay: Antitumor activity against human MV4-11 cells by MTS assay; assay type: functional
K562 = assay: Antitumor activity against human K562 cells by MTS assay; assay type: functional
KB 3-1 [8] = assay: Antitumor activity against human KB-3-1 cells by MTS assay; assay type: functional
Tubulin (Homo sapiens) [9] = molecular target: T1, Tubulin (Homo sapiens); assay: Inhibition of microtubule polymerization in human HCT-116 cells assessed as decrease in polymeric tubulin level at 1.25 to 5 times GI50 incubated for 5 mins by immunoblot analysis; assay type: cell-based
Tubulin (Homo sapiens) [10] = molecular target: T1, Tubulin (Homo sapiens); assay: Inhibition of microtubule polymerization in human HCT-116 cells assessed as increase in soluble tubulin level at 1.25 to 5 times GI50 incubated for 5 mins by immunoblot analysis; assay type: cell-based
Tubulin (Homo sapiens) [11] = molecular target: T1, Tubulin (Homo sapiens); assay: Inhibition of microtubule polymerization (unknown origin) at 10 uM incubated for 1 hr by turbidimetric assay relative to control; assay type: protein-complex assay
A549 [12] = assay: Induction of mitotic cell arrest in human A549 cells assessed as defective spindles at 5 times GI50 incubated for 24 hrs by immunofluorescence based confocal microscopic analysis; assay type: functional
A549 [13] = assay: Induction of mitotic cell arrest in human A549 cells assessed as chromosome misalignment at 5 times GI50 incubated for 24 hrs by immunofluorescence based confocal microscopic analysis; assay type: functional
HCT-116 [14] = assay: Induction of apoptosis in human HCT-116 cells assessed as increase in p53 expression at 1.25 to 5 times GI50 incubated for 24 to 36 hrs by Western blot analysis; assay type: functional, cell-based; settings: time 24-36 hrs
HCT-116 [15] = assay: Induction of apoptosis in human HCT-116 cells assessed as increase in PARP cleavage at 1.25 to 5 times GI50 incubated for 24 to 36 hrs by Western blot analysis; assay type: functional, cell-based; settings: time 24-36 hrs
HCT-116 [16] = assay: Induction of apoptosis in human HCT-116 cells assessed as increase in apoptotic cell death at 2.5 to 5 times GI50 incubated for 24 hrs by Annexin V/PI staining based flow cytometric analysis; assay type: functional
[17] = Anticancer activity against mouse colon cancer organoids expressing Apc fl/fl-Kras G12D-Tp53 KO-Smad4 KO assessed as inhibition of cell viability measured after 4 days by Cell Titer Glo assay; assay type: functional; settings: Colon cancer organoid, 96 h, time 4 day
[18] = Anticancer activity against human colon cancer organoids assessed as inhibition of cell viability measured after 4 days by Cell Titer Glo assay; assay type: functional; settings: Colon cancer organoid, 96 h, time 4 day
KB-V1 [19] = assay: Cytotoxicity against multidrug resistant human KB-V1 cells assessed as inhibition of cell proliferation; assay type: functional
KB 3-1 [20] = assay: Cytotoxicity against human KB-3-1 cells assessed as inhibition of cell proliferation; assay type: functional
[21] = Resistance index, ratio of GI50 for multidrug resistant human KB-V1 cells to GI50 for human KB-3-1 cells; assay type: functional
KB-V1 [22] = assay: Induction of apoptosis in multidrug resistant human KB-V1 cells assessed as increase in PARP cleavage at 1.25 to 5 uM incubated for 24 hrs by Western blot analysis; assay type: functional, cell-based; settings: dose 1.25-5 µM
KB 3-1 [23] = assay: Induction of apoptosis in human KB-3-1 cells assessed as increase in PARP cleavage at 1.25 to 5 uM incubated for 24 hrs by Western blot analysis; assay type: functional, cell-based; settings: dose 1.25-5 µM
KB-V1 [24] = assay: Inhibition of P-gp in human KB-V1 cells at 5 uM by calcein AM efflux assay; assay type: functional, cell-based
KB 3-1 [25] = assay: Induction of apoptosis in human KB-3-1 cells assessed as increase in PARP cleavage at 100 uM incubated for 24 hrs by Western blot analysis; assay type: functional, cell-based

SMILES: CC[C@]1(O)C[C@H]2CN(CCc3c([nH]c4ccccc34)[C@@](C(=O)OC)(c3cc4c(cc3OC)N(C=O)[C@H]3[C@@](O)(C(=O)OC)[C@H](OC(C)=O)[C@]5(CC)C=CCN6CC[C@]43[C@@H]65)C2)C1 [VINCRISTINE]
- GI50 (HCT-116 [2]): 0.006 µM
- GI50 (CAL-51 [3]): 0.089 µM

SMILES: COc1cc(C2C3=C(CCCC3=O)Nc3cc4c(cc32)OCCO4)cc(OC)c1OC (stereo unspecified)
- Activity (CAL-51 [1]): Active
- GI50 (HCT-116 [2]): 3.33 µM
- GI50 (CAL-51 [3]): 4.15 µM

SMILES: CN1C2=C(C(=O)CCC2)C(c2ccc(Br)cc2)c2cc3c(cc21)OCCO3 (stereo unspecified)
- GI50 (HCT-116 [2]): 17.3 µM
- GI50 (CAL-51 [3]): 23.7 µM

SMILES: O=C1CCCC2=C1C(c1cccc([N+](=O)[O-])c1)c1cc3c(cc1N2)OCCO3 (stereo unspecified)
- Activity (HCT-116 [4]): Dose-Dependent Effect
- Activity (A549 [5]): Active
- Activity (HCT-116 [6]): Active
- Activity (CAL-51 [1]): Active
- inhibition (Tubulin (Homo sapiens) [7]): Active
- GI50 (HCT-116 [2]): 2.01 µM
- GI50 (CAL-51 [3]): 3.3 µM
- GI50 (BT-549): 7.05 µM
- GI50 (HCC1954): 21.2 µM
- GI50 (MCF7): 5.02 µM
- GI50 (MOLM-13): 4.23 µM
- GI50 (MV4-11): 9.45 µM
- GI50 (K562): 17.7 µM
- GI50 (KB 3-1 [8]): 1.29 µM
- inhibition (Tubulin (Homo sapiens) [9]): Active
- inhibition (Tubulin (Homo sapiens) [10]): Active
- inhibition (Tubulin (Homo sapiens) [11]): Active
- Activity (A549 [12]): Active
- Activity (A549 [13]): Active
- Activity (HCT-116 [14]): Active
- Activity (HCT-116 [15]): Active
- Activity (HCT-116 [16]): Active
- GI50 [17]: 7.16 µM
- GI50 [18]: 11.6 µM
- GI50 (KB-V1 [19]): 1.74 µM
- GI50 (KB 3-1 [20]): 1.29 µM
- RatioGI50 [21]: 1.35
- Activity (KB-V1 [22]): Active
- Activity (KB 3-1 [23]): Active
- inhibition (KB-V1 [24]): inactive

SMILES: COC(=O)Nc1nc2cc(C(=O)c3cccs3)ccc2[nH]1 [NOCODAZOLE]
- inhibition (Tubulin (Homo sapiens) [7]): Active
- GI50 (HCT-116 [2]): 0.24 µM
- GI50 (CAL-51 [3]): 0.209 µM
- inhibition (Tubulin (Homo sapiens) [9]): Active
- inhibition (Tubulin (Homo sapiens) [10]): Active

SMILES: COc1cc([C@@H]2c3cc4c(cc3[C@H](O)[C@H]3COC(=O)[C@H]23)OCO4)cc(OC)c1OC [PODOFILOX]
- GI50 (HCT-116 [2]): 0.013 µM
- GI50 (CAL-51 [3]): 0.013 µM

SMILES: COc1ccc(OC)c(C2C3=C(CCCC3=O)Nc3cc4c(cc32)OCCO4)c1 (stereo unspecified)
- GI50 (HCT-116 [2]): 12.2 µM
- GI50 (CAL-51 [3]): 20.9 µM

SMILES: CC(=O)O[C@H]1C(=O)[C@@]2(C)[C@H]([C@H](OC(=O)c3ccccc3)[C@]3(O)C[C@H](OC(=O)[C@H](O)[C@@H](NC(=O)c4ccccc4)c4ccccc4)C(C)=C1C3(C)C)[C@]1(OC(C)=O)CO[C@@H]1C[C@@H]2O [PACLITAXEL]
- GI50 (KB-V1 [19]): 0.432 µM
- GI50 (KB 3-1 [20]): 0.00223 µM
- RatioGI50 [21]: 193.51
- Activity (KB 3-1 [25]): Active

More lines, main results first:

- GI50 (HCT-116 [2]): 9.85 µM
SMILES: O=C1CCCC2=C1C(c1ccco1)c1cc3c(cc1N2)OCCO3 (stereo unspecified)
- Activity (CAL-51 [1]): Active
- GI50 (CAL-51 [3]): 11.8 µM

- GI50 (HCT-116 [2]): 4.64 µM
SMILES: O=C1CCCC2=C1C(c1cccc(F)c1F)c1cc3c(cc1N2)OCCO3 (stereo unspecified)
- GI50 (CAL-51 [3]): 4.63 µM

- GI50 (HCT-116 [2]): 5.44 µM
SMILES: O=C1CCCC2=C1C(c1ccc(F)c(F)c1)c1cc3c(cc1N2)OCCO3 (stereo unspecified)
- GI50 (CAL-51 [3]): 7.94 µM

- GI50 (HCT-116 [2]): 11.9 µM
SMILES: COc1cccc(C2C3=C(CCCC3=O)Nc3cc4c(cc32)OCCO4)c1 (stereo unspecified)
- Activity (CAL-51 [1]): Active
- GI50 (CAL-51 [3]): 12.7 µM

- GI50 (HCT-116 [2]): > 100 µM
SMILES: O=C1CCCC2=C1C(c1ccccc1)c1cc3c(cc1N2)OCCO3 (stereo unspecified)
- Activity (CAL-51 [1]): Active
- GI50 (CAL-51 [3]): 9.53 µM

- GI50 (HCT-116 [2]): 18.4 µM
SMILES: O=C1CCCC2=C1C(c1cccc(Cl)c1)c1cc3c(cc1N2)OCCO3 (stereo unspecified)
- Activity (CAL-51 [1]): Active
- GI50 (CAL-51 [3]): 12.6 µM
